# Measured values taken from US4049795A, “Treatment of hemorrhagic shock” (priority 1974, dated 1977).
# Experiments:
# Rabbit ileum = assay: Isolated rabbit ileum, tonus; details: without dihydroxyacetone
# Method: Fragments of the ileum were suspended in a 75 ml isolated organ tank containing Tyrode's solution maintained at 37° C. by a thermostat and oxygenated by bubbling pure oxygen at a constant rate of flow. The movement of the organ were recorded by means of a lever on a cylinder rotating at a known constant speed.
# Rabbit atrium = assay: Isolated rabbit atrium; details: rabbit atrium
# Text: The technique used for this study was the same as that described above for the ileum of the rabbit, but replacing the ileum with bled rabbit atrium. The preservation liquid used as LOCKE's liquid.
# glucidic metabolism = assay: Glucidic metabolism under intravenous perfusion in rabbits (lactacidemia, pyruvicemia, glycemia); type: in vivo, rabbit; details: 30 and 60 minutes after perfusion
# Method: These tests were carried out on rabbits weighing an average of 2.500 kg.
# A trachetomy was carried out under local anaesthesia with procaine. […] A saphenous vein and the two femoral arteries were catheterized under local anaesthesia in order to register the blood pressure by a manometer and to take blood samples; a jugular vein was catheterized to the base of the skull to sample cerebral venous blood.
# The results obtained were compared with those obtained following a perfusion carried out in the same way with sodium d,l-lactate at a dose of 40 mg/kg/min.
# The glycemia was measured by the enzymatic method in the arterial and cerebral venus blood. The samples were taken before the perfusion, at the end of the perfusion, and at 30 minutes and 60 minutes after perfusion.
# [1] = system: reticulo-endothelial system; assay: Phagocytic activity of the reticulo-endothelial system, carbon clearance (HALPERN); type: in vivo, rabbit; details: FIGS. 3 and 4
# Text: That technique is based on the study of the kinetics of the disappearance in the blood of particles of carbon injected into the vein. The kinetics of disappearance follow the equation [formula] in which formula C1 is the concentration of carbon in the blood at time T1 and C2 is the concentration of carbon in the blood at time T2, K being a constant. The constant K, called phagocytic index, represents the phagocytic activity of the cells of the reticule-endothelial system under the experimental conditions. For the tests, the technique and carbon suspension described by […]. Physiol. of Paris, Vol. 50, p. […] The study was done on rabbits of the same stock, male or female, or an average weight of about 2.5 kg, devided into four batches of four animals each. The first batch was used as controls and received, by slow intravenous injection, 10 ml of a 0.8% solution of sodium chloride ten minutes before the injection of 4 mg of carbon per 100 g of animal. […] In all the tests, a total volume of 10 ml was injected with a fairly closely related injection speed (less than five minutes).
# hemorrhagic shock = assay: Irreversible hemorrhagic shock (WIGGERS) in dogs; details: irreversible shock
# Method: These experiments were carried out with dogs. […] Spontaneous reinjection, by progressive circulatory failure, of a quarter of the mass of blood effused during the second hemmorhage, was chosen as the irreversibility criterion. The following parameters were measured: pH, arterial and venous CO2 pressure (with a radiometertype apparatus), lactacidemia, pyruvicemia and glycemia (by the enzymatic method), and kalemia (with a flame photometer). Samples were taken from the dogs before irreversibility, immediately after, one hour 11/2 hours and 2R hours thereafter. The blood pressure was followed by femoral intubation and recorded with an apparatus providing mean arterial bloodpressure readings.
# [2] = system: free fatty acids in the plasma; assay: Non-esterified fatty acids in the plasma (DOLE); type: in vivo, rabbit
# Method: Doses of 1 and 2 mg of adrenalin were introduced subcutaneously into rabbits weighing 2.5 to 3.5 kg.
# FIGS. 8, 9 and 10 show the variation in the percentage of non-esterified fatty acids in the plasma as a function of the time. […]
smiles,measurement,setting,value
"[Cl-].[K+] [Potassium chloride, reference compound]","tonus of the fiber, ordinary effect",Rabbit ileum,increases the tonus of the fiber in a stable manner
"CC(O)C(=O)O (racemic) [sodium lactate, sodium d,l-lactate, reference compound]",action on rhythm of atrium,Rabbit atrium,accelerates the rhythm
same,lactacidemia at 30 and 60 minutes after the end of perfusion,glucidic metabolism,tended to return to its initial values
same,rate of phagocytosis,[1],increased
"O=C[C@H](O)[C@@H](O)[C@H](O)[C@H](O)CO [hypertonic glucose, glucose, reference compound]",effect on the blood pressure in hemorrhagic shock,hemorrhagic shock,no effect
same,effect on the blood pressure in hemorrhagic shock,hemorrhagic shock; listed as 30% glucose,none
CNCC(O)c1ccc(O)c(O)c1 (stereo not drawn) [adrenalin],proportion of non-esterified fatty acids one hour after injection,"[2]; 1 mg of adrenalin, FIG. 9",fell below normal
same,proportion of non-esterified fatty acids one hour after injection,"[2]; 2 mg of adrenalin, FIG. 8",again increased
same,average proportion of non-esterified fatty acids about 10 to 15 minutes after injection,"[2]; 1 or 2 mg of adrenalin, fed rabbits",increased
